Reference: patent US20110237600A1, “COMPOUNDS FOR IMPROVING LEARNING AND MEMORY” (AMNESTIX, INC., priority 2008, published 2011)

Columns and labels:
[1] = tested on: undifferentiated PC12 cells; conditions: Zhang et al., Cell Mol Biol Lett., 2006; cited from earlier work
[2] = tested on: hippocampal slices from 3-4 week-old Wistar rats; assay: In vitro LTP analysis, theta burst stimulation, fEPSP slope recording; assay type: cell-based, rat
Excerpt: The effect of long-term potentiation (LTP) which can be measured in vitro, is generally thought to correlate with memory. Stimulation of an afferent neuron or neuronal cell area results in membrane potentials of a downstream positioned neuron or neuronal cell area. Such membrane potentials are long-term potentiated at least over hours after stimulating the afferent neurons e.g. with a theta burst paradigm. Therefore, LTP is regarded as memory on cellular level. Electrophysiological LTP measurements on neurons incubated with a test compound in comparison to sham incubated neurons can be used to assess the compounds' potential to enhance memory (See generally Cooke and Bliss, Brain, 2006, 129 (1659), which is hereby incorporated by reference).
LTP is thought to be suitable as in vitro model for the assessment of memory function. Therefore, it allows analysis of test compounds, e.g. the compounds of the invention, e.g. 1-(8-cyclohexyl-5 isoquinoline-sulfonyl) 2-methyl-piperazine for memory enhancing potential. Experiments were done on hippocampal slices from 3-4 week-old Wistar rats. The rats were sacrificed by decapitation without prior anesthesia. […] A platinum/tungsten electrode was then lowered into the CA1 dendritic layer under visual control until stable amplitudes of the recorded fEPSP were achieved. […] Then, the test compound was washed in for a period of 30 min during which stimulation was continued at 0.05 Hz and fEPSPs were continuously recorded. […] All slices recorded simultaneously were treated with the same time schedule. From the recorded data, the amplitudes of the evoked fEPSP were automatically calculated by the recording software (Synchroslice data acquisition and analysis, LRE) as the negative peak of the postsynaptic signal with respect to baseline and plotted online. All recorded signals were digitally stored for later offline analysis, in particular for fEPSP negative slope calculation. From the stored single sweeps, the slope was calculated between 30% and 70% of the maximum fEPSP amplitude. […]

[3] = target: T1, CSNK1E (Homo sapiens, UniProt P49674); assay: KinomeScan active-site dependent competition binding assay; conditions: 10 μM concentration
T1 construct: purchased Ambit
T1 sequence (P49674 whole entry): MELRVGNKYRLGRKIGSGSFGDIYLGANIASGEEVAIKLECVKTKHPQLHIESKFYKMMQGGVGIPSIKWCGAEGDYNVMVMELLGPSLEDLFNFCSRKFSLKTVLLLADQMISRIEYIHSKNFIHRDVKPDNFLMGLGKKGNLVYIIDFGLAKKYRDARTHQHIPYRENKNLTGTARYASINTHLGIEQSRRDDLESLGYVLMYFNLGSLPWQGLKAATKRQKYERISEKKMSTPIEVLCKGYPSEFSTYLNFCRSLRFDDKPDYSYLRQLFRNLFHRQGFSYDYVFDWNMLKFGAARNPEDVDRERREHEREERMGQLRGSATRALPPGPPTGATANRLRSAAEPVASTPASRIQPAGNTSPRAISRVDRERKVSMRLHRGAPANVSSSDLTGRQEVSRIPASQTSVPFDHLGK
Excerpt: (§1) Active-site dependent competition binding assays can be performed with hundreds of known kinases in parallel (Fabian et al., Nat Biotechnol. 2005, 23, 329; Karaman et al., Nat Biotechnol. 2008, 26, 127) in order to determine how compounds bind to both intended and unintended kinases. Such methods allow the assessment of the specificity of a kinase inhibitor.
(§2) Based on a competition binding assay that quantitatively measures the ability of a test compound to compete with an immobilized, active-site directed ligand it is possible to scan the competitive effect of the test compound for a broad variety of kinases in parallel (KinomeScan, Ambit, San Diego, Calif., USA; Fabian et al., Nat Biotechnol. 2005, 23, 329). Based on this analysis it is possible to assess the inhibitory specificity of a test compound. The assay was performed with 1-(8-cyclohexyl-5 isoquinoline-sulfonyl) 2-methyl-piperazine in 10 μM concentration. As result of the assay one obtains the percentage of competition of the active-site directed ligand for each of the over 400 kinases of the test due to the incubation with the test compounds. FIG. 3 lists the kinases ranked according to their binding to 1-(8-cyclohexyl-5 isoquinoline-sulfonyl) 2-methyl-piperazine (compound A). Strong binding (more than 50%) of 1-(8-cyclohexyl-5 isoquinoline-sulfonyl) 2-methyl-piperazine is found only for the kinases CSNK1E, CSNK1A1L, CSNK1D, MERTK, SLK, IRAK1, STK10, MAPK12, PHKG2, MAPK11, MET, AXL, STK32B, AURKC, CLK3, RPS6KA6, PDGFRB, KDR, CDK2.

[4] = target: T2, AURKC (Homo sapiens, UniProt Q9UQB9); assay: as above; conditions: 10 μM concentration
T2 construct: purchased Ambit
T2 sequence (Q9UQB9 whole entry): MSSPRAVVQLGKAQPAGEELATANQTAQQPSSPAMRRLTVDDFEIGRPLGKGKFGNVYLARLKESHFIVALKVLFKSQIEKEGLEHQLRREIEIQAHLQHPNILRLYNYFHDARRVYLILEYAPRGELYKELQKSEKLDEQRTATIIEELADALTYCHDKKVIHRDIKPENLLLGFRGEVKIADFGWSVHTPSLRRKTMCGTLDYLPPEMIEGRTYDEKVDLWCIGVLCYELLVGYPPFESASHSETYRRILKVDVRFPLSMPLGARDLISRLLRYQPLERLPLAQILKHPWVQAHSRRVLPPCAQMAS
Excerpt: as §1, §2

[5] = target: T3, CDK2 (Homo sapiens, UniProt P24941); assay: as above; conditions: 10 μM concentration
T3 construct: purchased Ambit
Excerpt: as §1, §2

[6] = target: T4, MERTK (Homo sapiens, UniProt Q12866); assay: as above; conditions: 10 μM concentration
T4 construct: purchased Ambit
Excerpt: as §1, §2

[7] = target: T5, PHKG2 (Homo sapiens, UniProt P15735); assay: as above; conditions: 10 μM concentration
T5 construct: purchased Ambit
T5 sequence (P15735 whole entry): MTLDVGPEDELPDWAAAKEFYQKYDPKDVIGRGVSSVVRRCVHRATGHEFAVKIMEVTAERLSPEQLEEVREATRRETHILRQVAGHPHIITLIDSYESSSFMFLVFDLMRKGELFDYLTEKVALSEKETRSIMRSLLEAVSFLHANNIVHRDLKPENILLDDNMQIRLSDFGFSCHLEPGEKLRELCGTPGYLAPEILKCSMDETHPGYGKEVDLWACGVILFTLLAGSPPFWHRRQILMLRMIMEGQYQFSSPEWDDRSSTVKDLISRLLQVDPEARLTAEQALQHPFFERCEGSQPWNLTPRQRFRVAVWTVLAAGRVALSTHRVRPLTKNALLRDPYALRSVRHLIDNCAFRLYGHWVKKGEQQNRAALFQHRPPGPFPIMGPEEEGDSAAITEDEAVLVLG
Excerpt: as §1, §2

[8] = target: T6, STK10 (Homo sapiens, UniProt O94804); assay: as above; conditions: 10 μM concentration
T6 construct: purchased Ambit
Excerpt: as §1, §2

[9] = target: T7, MAPK12 (Homo sapiens, UniProt P53778); assay: as above; conditions: 10 μM concentration
T7 construct: purchased Ambit
Excerpt: as §1, §2

[10] = target: T8, MET (Homo sapiens, UniProt P08581); assay: as above; conditions: 10 μM concentration
T8 construct: purchased Ambit
Excerpt: as §1, §2

[11] = target: T9, IRAK1 (Homo sapiens, UniProt P51617); assay: as above; conditions: 10 μM concentration
T9 construct: purchased Ambit
T9 sequence (P51617 whole entry): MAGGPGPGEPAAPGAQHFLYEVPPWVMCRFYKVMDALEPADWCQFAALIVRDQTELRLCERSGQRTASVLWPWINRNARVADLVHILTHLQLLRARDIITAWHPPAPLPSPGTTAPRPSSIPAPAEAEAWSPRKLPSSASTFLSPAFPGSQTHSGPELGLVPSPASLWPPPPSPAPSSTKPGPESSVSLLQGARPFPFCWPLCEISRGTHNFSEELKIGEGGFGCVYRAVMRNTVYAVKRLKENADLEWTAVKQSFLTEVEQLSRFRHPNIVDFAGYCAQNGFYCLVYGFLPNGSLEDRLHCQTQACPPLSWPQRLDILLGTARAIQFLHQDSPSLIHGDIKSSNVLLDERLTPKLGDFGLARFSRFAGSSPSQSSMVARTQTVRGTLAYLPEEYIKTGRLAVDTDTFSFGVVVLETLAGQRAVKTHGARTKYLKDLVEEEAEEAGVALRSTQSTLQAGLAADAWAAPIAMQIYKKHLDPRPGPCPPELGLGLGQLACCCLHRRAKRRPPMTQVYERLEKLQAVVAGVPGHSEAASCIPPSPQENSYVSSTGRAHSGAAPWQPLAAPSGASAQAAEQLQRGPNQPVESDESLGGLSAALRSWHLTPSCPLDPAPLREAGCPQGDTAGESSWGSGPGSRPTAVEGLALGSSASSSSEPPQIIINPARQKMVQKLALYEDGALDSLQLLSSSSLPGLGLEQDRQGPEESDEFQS
Excerpt: as §1, §2

[12] = target: T10, AXL (Homo sapiens, UniProt P30530); assay: as above; conditions: 10 μM concentration
T10 construct: purchased Ambit
Excerpt: as §1, §2

[13] = target: T11, RPS6KA6 (Homo sapiens, UniProt Q9UK32); assay: as above; conditions: 10 μM concentration
T11 construct: purchased Ambit
T11 sequence (Q9UK32 whole entry): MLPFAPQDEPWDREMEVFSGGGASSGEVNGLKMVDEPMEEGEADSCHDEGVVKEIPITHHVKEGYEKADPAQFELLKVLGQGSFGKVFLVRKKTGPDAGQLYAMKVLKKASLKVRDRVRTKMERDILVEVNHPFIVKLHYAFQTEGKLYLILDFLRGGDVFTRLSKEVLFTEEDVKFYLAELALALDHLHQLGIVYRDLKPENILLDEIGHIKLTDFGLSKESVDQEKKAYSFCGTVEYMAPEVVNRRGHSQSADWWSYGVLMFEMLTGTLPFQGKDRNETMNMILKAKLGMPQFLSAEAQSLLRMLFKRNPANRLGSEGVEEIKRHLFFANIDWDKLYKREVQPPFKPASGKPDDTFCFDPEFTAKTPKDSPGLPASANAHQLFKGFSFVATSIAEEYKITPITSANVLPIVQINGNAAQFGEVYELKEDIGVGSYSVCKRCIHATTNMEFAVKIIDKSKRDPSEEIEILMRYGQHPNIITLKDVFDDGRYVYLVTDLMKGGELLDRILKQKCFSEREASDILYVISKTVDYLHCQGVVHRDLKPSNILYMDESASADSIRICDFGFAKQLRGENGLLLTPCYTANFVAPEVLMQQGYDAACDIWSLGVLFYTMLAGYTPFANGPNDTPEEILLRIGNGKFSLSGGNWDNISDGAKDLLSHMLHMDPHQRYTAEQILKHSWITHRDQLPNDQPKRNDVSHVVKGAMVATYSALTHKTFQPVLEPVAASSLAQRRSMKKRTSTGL
Excerpt: as §1, §2

[14] = target: T12, CSNK1A1L (Homo sapiens, UniProt Q8N752); assay: as above; conditions: 10 μM concentration
T12 construct: purchased Ambit
Excerpt: as §1, §2

[15] = target: T13, MAPK11 (Homo sapiens, UniProt Q15759); assay: as above; conditions: 10 μM concentration
T13 construct: purchased Ambit
T13 sequence (Q15759 whole entry): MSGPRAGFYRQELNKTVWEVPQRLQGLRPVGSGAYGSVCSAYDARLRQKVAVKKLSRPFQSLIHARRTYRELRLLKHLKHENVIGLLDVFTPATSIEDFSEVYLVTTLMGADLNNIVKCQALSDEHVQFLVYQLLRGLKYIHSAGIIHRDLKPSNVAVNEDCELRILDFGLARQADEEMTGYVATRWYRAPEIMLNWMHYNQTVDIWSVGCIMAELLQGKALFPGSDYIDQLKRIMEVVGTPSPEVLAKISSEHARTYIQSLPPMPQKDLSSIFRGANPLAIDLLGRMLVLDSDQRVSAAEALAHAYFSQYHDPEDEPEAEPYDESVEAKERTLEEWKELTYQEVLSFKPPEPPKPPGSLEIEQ
Excerpt: as §1, §2

[16] = target: T14, STK32B (Homo sapiens, UniProt Q9NY57); assay: as above; conditions: 10 μM concentration
T14 construct: purchased Ambit
Excerpt: as §1, §2

[17] = target: T15, CSNK1D (Homo sapiens, UniProt P48730); assay: as above; conditions: 10 μM concentration
T15 construct: purchased Ambit
Excerpt: as §1, §2

[18] = target: T16, PDGFRB (Homo sapiens, UniProt P09619); assay: as above; conditions: 10 μM concentration
T16 construct: purchased Ambit
Excerpt: as §1, §2

[19] = target: T17, KDR (Homo sapiens, UniProt P35968); assay: as above; conditions: 10 μM concentration
T17 construct: purchased Ambit
T17 sequence (P35968 20-1356): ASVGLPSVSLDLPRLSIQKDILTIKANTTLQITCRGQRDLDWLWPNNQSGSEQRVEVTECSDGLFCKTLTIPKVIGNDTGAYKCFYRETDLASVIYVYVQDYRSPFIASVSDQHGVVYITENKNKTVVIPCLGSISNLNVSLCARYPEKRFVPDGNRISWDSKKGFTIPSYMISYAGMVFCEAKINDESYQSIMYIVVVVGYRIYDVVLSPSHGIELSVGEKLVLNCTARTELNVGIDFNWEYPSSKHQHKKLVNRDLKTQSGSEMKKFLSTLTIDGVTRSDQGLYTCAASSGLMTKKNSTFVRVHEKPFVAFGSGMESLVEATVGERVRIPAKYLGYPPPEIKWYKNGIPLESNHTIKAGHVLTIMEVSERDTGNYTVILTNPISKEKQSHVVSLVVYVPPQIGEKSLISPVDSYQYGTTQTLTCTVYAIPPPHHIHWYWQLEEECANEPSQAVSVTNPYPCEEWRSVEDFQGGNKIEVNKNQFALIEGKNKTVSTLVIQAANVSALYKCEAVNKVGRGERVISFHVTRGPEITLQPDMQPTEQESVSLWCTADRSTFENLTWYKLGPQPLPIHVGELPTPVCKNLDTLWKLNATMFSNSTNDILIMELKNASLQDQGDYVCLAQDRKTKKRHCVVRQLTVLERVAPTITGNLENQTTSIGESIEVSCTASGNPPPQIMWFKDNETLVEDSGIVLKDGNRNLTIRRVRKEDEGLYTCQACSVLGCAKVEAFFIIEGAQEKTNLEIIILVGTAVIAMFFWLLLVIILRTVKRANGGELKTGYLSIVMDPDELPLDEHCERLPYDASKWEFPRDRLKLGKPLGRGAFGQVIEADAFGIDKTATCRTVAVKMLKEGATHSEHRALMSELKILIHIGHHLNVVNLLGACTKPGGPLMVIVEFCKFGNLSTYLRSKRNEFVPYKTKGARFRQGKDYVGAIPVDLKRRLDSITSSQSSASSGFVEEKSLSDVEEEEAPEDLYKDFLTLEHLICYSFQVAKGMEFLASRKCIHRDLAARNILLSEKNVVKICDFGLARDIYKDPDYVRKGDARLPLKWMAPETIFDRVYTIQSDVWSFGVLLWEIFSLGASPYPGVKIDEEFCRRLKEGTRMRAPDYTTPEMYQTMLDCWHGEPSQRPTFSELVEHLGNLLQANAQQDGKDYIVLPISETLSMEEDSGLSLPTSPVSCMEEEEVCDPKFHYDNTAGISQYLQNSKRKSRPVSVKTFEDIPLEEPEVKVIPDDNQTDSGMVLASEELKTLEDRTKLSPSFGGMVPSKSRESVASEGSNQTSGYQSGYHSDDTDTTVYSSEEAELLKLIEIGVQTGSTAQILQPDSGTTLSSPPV
Excerpt: as §1, §2

[20] = target: T18, SLK (Homo sapiens, UniProt Q9H2G2); assay: as above; conditions: 10 μM concentration
T18 construct: purchased Ambit
Excerpt: as §1, §2

[21] = target: T19, CLK3 (Homo sapiens, UniProt P49761); assay: as above; conditions: 10 μM concentration
T19 construct: purchased Ambit
T19 sequence (P49761 whole entry): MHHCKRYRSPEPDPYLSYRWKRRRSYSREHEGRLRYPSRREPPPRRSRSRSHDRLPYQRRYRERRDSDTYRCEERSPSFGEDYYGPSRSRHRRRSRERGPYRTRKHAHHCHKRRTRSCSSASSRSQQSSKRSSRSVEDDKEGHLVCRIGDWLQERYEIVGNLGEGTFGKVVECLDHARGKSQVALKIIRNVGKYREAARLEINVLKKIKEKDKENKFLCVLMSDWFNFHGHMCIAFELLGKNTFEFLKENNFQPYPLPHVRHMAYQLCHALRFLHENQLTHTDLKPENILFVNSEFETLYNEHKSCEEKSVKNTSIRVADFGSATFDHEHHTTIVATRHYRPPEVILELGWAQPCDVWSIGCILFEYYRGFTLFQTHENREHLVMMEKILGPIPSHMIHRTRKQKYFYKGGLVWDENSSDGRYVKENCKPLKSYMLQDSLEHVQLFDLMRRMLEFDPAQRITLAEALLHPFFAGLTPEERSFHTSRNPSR
Excerpt: as §1, §2

[22] = tested on: over 400 kinases; assay: Kinase specificity analysis (KinomeScan panel); conditions: 10 μM concentration; strong binding (more than 50%) for 19 kinases only
Excerpt: as §1
as §2, with “Strong binding (more than 50%) of 1-(8-cyclohexyl-5 isoquinoline-sulfonyl) 2-methyl-piperazine is found only for the kinases CSNK1E, CSNK1A1L, CSNK1D, MERTK, SLK, IRAK1, STK10, MAPK12, PHKG2, MAPK11, MET, AXL, STK32B, AURKC, CLK3, RPS6KA6, PDGFRB, KDR, CDK2.” left out

Structure (SMILES): O=S(=O)(c1cccc2cnccc12)N1CCCNCC1 [Fasudil]
- neurite outgrowth [1]: increase neurite outgrowth

Structure (SMILES): CC1CNCCN1S(=O)(=O)c1ccc(C2CCCCC2)c2cnccc12 (stereo not drawn) [1-(8-cyclohexyl-5 isoquinoline-sulfonyl) 2-methyl-piperazine]
- increase in EPSP slopes when the compound is removed ([2]; 100 μM concentration): most obvious and very strong
- LTP induction (fEPSP slope) ([2]; compound washed in at increasing concentrations (1 μM, 10 μM and 100 μM), control slices about 140% of pre-stimulus levels): complete block of LTP-induction
- EPSP slopes when the compound is removed ([2]; wash-out 30 min after LTP induction, 1 μM, 10 μM and 100 μM): increase in EPSP slopes
- binding (percentage of competition of the active-site directed ligand) [3]: more than 50%
- binding (percentage of competition of the active-site directed ligand) [4]: more than 50%
- binding (percentage of competition of the active-site directed ligand) [5]: more than 50%
- binding (percentage of competition of the active-site directed ligand) [6]: more than 50%
- binding (percentage of competition of the active-site directed ligand) [7]: more than 50%
- binding (percentage of competition of the active-site directed ligand) [8]: more than 50%
- binding (percentage of competition of the active-site directed ligand) [9]: more than 50%
- binding (percentage of competition of the active-site directed ligand) [10]: more than 50%
- binding (percentage of competition of the active-site directed ligand) [11]: more than 50%
- binding (percentage of competition of the active-site directed ligand) [12]: more than 50%
- binding (percentage of competition of the active-site directed ligand) [13]: more than 50%
- binding (percentage of competition of the active-site directed ligand) [14]: more than 50%
- binding (percentage of competition of the active-site directed ligand) [15]: more than 50%
- binding (percentage of competition of the active-site directed ligand) [16]: more than 50%
- binding (percentage of competition of the active-site directed ligand) [17]: more than 50%
- binding (percentage of competition of the active-site directed ligand) [18]: more than 50%
- binding (percentage of competition of the active-site directed ligand) [19]: more than 50%
- binding (percentage of competition of the active-site directed ligand) [20]: more than 50%
- binding (percentage of competition of the active-site directed ligand) [21]: more than 50%
- inhibitory specificity across the kinase panel [22]: very selective kinase inhibitor
